According to patent US20260183306A1, “Methods for Treating Respiratory Diseases Characterized by Mucus Hypersecretion” (The Board of Trustees of the Leland Stanford Junior …, priority 2022, published 2026):
“Also recorded” adds a separate entry of the source.

What was measured:
[1] = tested on: primary human nasal epithelial cells (HNECs); assay: Multiciliated cell (MCC) formation in HNEC air-liquid interface (ALI) cultures; assay type: cell-based; conditions: for multiciliated cell numbers, treatment during differentiation: differentiation only (ALI+0 to +21d) and continuous (preALI+ALI) treatments; for multiciliated cell formation in mature cultures: mature (ALI+30d) cultures treated one (ALI+30 to +37d) or two weeks (ALI+30 to +44d); for multiciliated cell formation, treatment during proliferation only: pre-ALI only (ALI-5 to -1d)
Procedure: Air-Liquid Interface (ALI) cultures were prepared as described in Vladar E K, Nayak J V, Milla C E, Axelrod J D. Airway epithelial homeostasis and planar cell polarity signaling depend on multiciliated cell differentiation. JCI Insight. 2016; 1(13); e88027. Human nasal epithelial cells (HNECs) were generated from human sinonasal epithelial brushings or from tissue obtained from patients undergoing endoscopic sinus surgery at Stanford Hospital and cultured as described in Vladar et al.
Cultures were treated with varying doses of semagacestat. DAFT (Abcam) was used ([…]) as a positive cone ml for GSI activity. Cultures were labeled at ALI+21 d with anti-acetylated α-tubulin (green) and ECAD (red) antibodies to mark cilia and epithelial junctions. […] The ratio was defined as MCC number/total luminal cells. Counting was done on one representative image from 5 culture replicates from a single donor.
Primary human airway epithelial cells were treated with DAPT and LY45139: i) during proliferation only (ALI-5 to -Id), ii) during differentiation only (ALI+0 to +21d) or iii) continuously during the entire culture duration, followed by labeling at ALI+21d with anti-acetylated α-Tubulin (green) and ECAD (red) antibodies.
Mature (ALI+30d) primary human airway epithelial cells were treated with DAFT and semagacestat for one (ALI+30 to +37d) or two weeks (ALI+30 to +44d), then labeled with anti-acetylated α-Tubulin (green) and ECAD (red) antibodies.
Primary human airway epithelial cells were treated with DAFT and LY45139 during differentiation only (ALI+0 to +21d) from either the apical or basal surface, then labeled at ALI+21d with anti-acetylated α-Tubulin (green) and ECAD (red) antibodies. […] Apical treatment eliminates the air-liquid interface, which results in the poor epithelial structure and multiciliated cell differentiation in the untreated cultures, which is partially rescued by GSI treatment.
While this effect may be beneficial as a therapeutic, DAPT is not suitable for human use. It was sought to identify GSIs for potential therapeutic application among small molecules previously used in clinical trials that were developed to have acceptable drug-like properties. […] Healthy human nasal epithelial cell (HNEC) primary cultures were grown at air-liquid interface (ALI) in homemade culture medium to support the consistent differentiation of multiciliated cells as approximately 45-55% of the luminal cells, similar to the in vivo airways (24) (FIG. 35A, 40A). The use of homemade culture medium is important, as cultures grown in commercially available Pneumacult medium often contain 85-95% multiciliated cells at the luminal surface (FIG. S4A). HNECs were treated with a low and high dose (based on IC50 for Notch inhibition, Selleckchem) of each compound during the entire 21 days of ALI differentiation (ALI+0 to 21d). The fraction of mature multiciliated cells was quantitated using wholemount ac. α-Tubulin antibody (marks ciliary axonemes) labeling. […] DMSO control treatment had no effect on multiciliated cell number (FIG. 40A).
HNEC primary culture comprises an initial proliferative phase when basal stem cells establish the epithelial layer under submerged culture conditions (preALI), followed by differentiation induced, in part, by lifting to ALI (30). Thus, HNECs can be used to test GSI response in both regenerative and homeostatic settings. Notch signaling between luminal cells controls epithelial cell fate, but it is also active in basal cells and regulates their differentiation and survival (14,18,31). Thus, it was asked if the GSIs LY450139 or DAFT during the proliferative preALI phase only or during the entire culture duration (proliferative+differentiation; preALI+ALI) can induce multiciliated cell formation and if GSI treatment during stem cell proliferation has detrimental effects. PreALI, GSIs was added to both the apical and basal media, and during ALI, cultures were only treated basally. […]

[2] = tested on: HNEC cultures treated with IL-13; assay: IL-13 induced chronic inflammation / mucous metaplasia model in ALI HNEC cultures; assay type: cell-based, human; conditions: for percentage of MCCs after IL-13 remodeling / percentage of mucin positive secretory (mucous) cells after IL-13 remodeling: IL-13 ALI+7 to 14, then DAFT (1 um) or semagacestat (125 nm) ALI+14 to 21; for percentage of MCCs in controls without IL-13: no IL-13, DAFT (1 um) or semagacestat (125 nm) days 14-21
Procedure: Administration of IL-13 to ALI cultures induces goblet cell hyperplasia and is a useful model of chronic inflammation. ALI HNEC cultures were prepared as described in Vladar et al. ALI cultures were treated with and without administration of I1-13 on days 7−14. DAFT (1 um), semagacestat (125 nm) or vehicle control were administered on days 14-21. PFA-fixed cultures were stained for Muc5AC (red; mucin producing secretory cells), Acetylated tubulin (green; MCCs) and E-Cadherin (blue to reveal cell boundaries).
HNEC cultures from a CF patient were treated with IL-13 from ALI+7 to 14 to induce inflammation. […] IL-13 treatment increases the percentage of mucin positive secretory cells and decreases the percentage of MCCs.
To test whether GSI treatment has the ability to restore multiciliated cells in remodeled epithelia with fewer than normal multiciliated cells, healthy donor HNECs were treated with the IL-13 pro-inflammatory cytokine to model mucous metaplasia (7,24). IL-13 treatment from ALI+7 to 14d of culture led to the formation of excess mucus secretory cells, identified by MUCSAC labeling, at the expense of multiciliated cells (FIG. 38A). At ALI+14d, the cytokine was withdrawn, and cultures were treated for one week with LY450139, DAPT or DMSO control.
Primary human nasal epithelial cell (HNEC) cultures. […] Primary air-liquid interface (ALI) culture of nasal epithelial cells from passage 0 (P0) or P1 basal stem cells was carried out as previously described (24,30). Briefly, cells are removed from cytobrushes with gentle enzymatic digestion. P0 HNEC cultures are initiated by seeding freshly isolated cells onto Collagen I coated Transwell filters. P1 HNEC cultures are initiated from basal cells that were first expanded on Collagen I coated plastic dishes in proliferation medium supplemented with Y-27632 (ROCK inhibitor, 10 μM), DMH-1 (BMP inhibitor, 1 μM), A-83-01, (TGF-β inhibitor, 1 μM), and CHIR99021 (WNT agonist, 1 μM)(42), all from Selleckchem. HNECs seeded onto Transwells are initially cultured submerged in proliferation medium until confluency, then lifted to ALI (considered as ALI+0d of culture) by supplying differentiation medium only from the bottom compartment. HNECs are considered mature at ALI+21d of culture. Healthy and CF HNECs used in the study were cultured in homemade media (24). CF HNECs used for the Ussing chamber measurements only were cultured in Pneumacult Ex+(proliferation) and Pneumacult ALI (differentiation) media (Stemcell). […] Healthy HNECs were treated with 10 ng/ml recombinant human IL-13 (RnD Systems).

SMILES	multiciliated cell formation by apical versus basal application ([1]; ALI+0 to +21d from either the apical or basal surface, listed as DAFT)	ratio MCC number/total luminal cells ([1]; I μM DAPT, labeled at ALI+21 d, vs untreated, p<0.01 by ANOVA)	number of multiciliated cells, apical only treatment of submerged cultures ([1]; apical only, submerged cultures, vs untreated submerged cells)	multiciliated cell numbers, treatment during differentiation [1]	multiciliated cell numbers, treatment during differentiation ([1]; listed as DAFT)	multiciliated cell formation in mature cultures [1]	multiciliated cell formation in mature cultures ([1]; listed as DAFT)	multiciliated cell formation, treatment during proliferation only ([1]; labeled ALI+21d)	multiciliated cell formation, treatment during proliferation only ([1]; labeled ALI+21d, listed as DAFT)	percentage of MCCs after IL-13 remodeling [2]	percentage of mucin positive secretory (mucous) cells after IL-13 remodeling [2]	percentage of MCCs after IL-13 remodeling ([2]; listed as DAFT)	percentage of mucin positive secretory (mucous) cells after IL-13 remodeling ([2]; listed as DAFT)	percentage of MCCs in controls without IL-13 [2]	percentage of MCCs in controls without IL-13 ([2]; listed as DAFT)	effect on Notch signaling and differentiation towards MCCs ([1]; administered in the nanomolar range to human nasal epithelial cells)	toxicity / disruption of epithelial structure at high concentration ([1]; high concentration, micromolar doses (10 μM for LY450139), ALI+0 to +21d)	multiciliated cell formation at the low concentration ([1]; low dose (based on IC50 for Notch inhibition), ALI+0 to +21d, labeled ALI+21d)
C[C@H](NC(=O)Cc1cc(F)cc(F)c1)C(=O)NC(C(=O)OC(C)(C)C)c1ccccc1 (stereo partly drawn) [DAPT]	induces ciliated cell formation via both apical and basal application; also recorded: induces multiciliated cell formation via both apical and basal application	significant increases	approximately double the number of multiciliated cells	increased MCC cell numbers; also recorded: increased multiciliated cell numbers	significant increase in the proportion of multiciliated cells	induces the formation of additional multiciliated cells in mature cultures	induces the formation of additional multiciliated cells in mature cultures; also recorded: robust induction of multiciliated cell formation	had no effect on differentiation; also recorded: no detrimental effect on multiciliated cells or overall epithelial structure	not sufficient to induce extra multiciliated cell formation	significantly increased their proportion of multiciliated cell numbers; also recorded: increasing the percentage of MCCs	reduction in the proportion of mucous cells; also recorded: decreasing the percentage of mucin positive secretory cells	increasing the percentage of MCCs; also recorded: induced multiciliated cell formation to levels comparable to healthy epithelia	decreasing the percentage of mucin positive secretory cells	increase the percentage of MCCs in controls	increase the percentage off MCCs in controls	–	–	–
O=C(O)CC[C@H]1CC[C@@](c2cc(F)ccc2F)(S(=O)(=O)c2ccc(Cl)cc2)CC1 [MK-0752]	–	–	–	–	–	–	–	–	–	–	–	–	–	–	–	effective in blocking Notch signaling, driving differentiation towards MCCs	disrupted epithelial structure	induced multiciliated cell formation; also recorded: able to induce the formation of extra multiciliated cells
